Laboratory results from BindingDB's records for patent US10202378 (Genentech, 2019).

Legend:
[1] = biological target: T1, Transcription initiation factor TFIID subunit 1 [1504-1635] (Homo sapiens, UniProt P21675); assay: TR-FRET Binding Assay
T1 construct: 1504-1635
T1 sequence (P21675 whole entry): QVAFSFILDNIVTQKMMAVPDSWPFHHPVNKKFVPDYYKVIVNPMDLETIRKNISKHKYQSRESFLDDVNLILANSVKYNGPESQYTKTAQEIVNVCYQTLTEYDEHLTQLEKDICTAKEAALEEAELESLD
Protocol: After a 10 minute incubation at room temperature, biotin-ligand (0.04 uM final) was added. […] After forty minutes of equilibration at room temperature, the plates were read on an Envision instrument and IC50s calculated using a four parameter logistic model (XLFIT).

[2] = biological target: T2, Transcription initiation factor TFIID subunit 1 [1381-1497] (Homo sapiens, UniProt P21675); assay: TAF1-BD1 TR-FRET Binding Assay
T2 construct: 1381-1497
T2 sequence (P21675 whole entry): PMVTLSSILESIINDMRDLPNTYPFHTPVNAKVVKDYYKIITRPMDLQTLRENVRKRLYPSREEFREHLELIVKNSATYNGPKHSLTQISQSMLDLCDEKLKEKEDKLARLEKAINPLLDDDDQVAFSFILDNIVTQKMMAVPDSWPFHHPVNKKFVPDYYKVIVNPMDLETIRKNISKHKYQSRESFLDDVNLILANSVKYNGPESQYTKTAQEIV
Protocol: Specifically, in a 384 well ProxiPlate, TAF1-BDI (0.08 uM final) in 50 mM HEPES (pH 7.5; final), 50 mM NaCl (final), 1 mM TCEP (final), 0.1 mg/mL BSA (final), and 0.069 mM Brij-35 (final) was added either in the presence of DMSO (final 0.2% DMSO) or compound dilution series in DMSO. After a 10 minute incubation at room temperature, biotin-ligand (0.08 uM final) was added. After 10 minutes incubation at room temperature, a mixture Eu-W1024 Anti-6×His antibody (Perkin Elmer ADO 110) and SureLight Streptavidin-Allophycocyanin (SA-APC, Perkin Elmer CR130-100) were added to final concentrations of 0.2 nM antibody and 0.05 uM SA-APC, respectively. After forty minutes of equilibration at room temperature, the plates were read on an Envision instrument and IC50s calculated using a four parameter logistic model (XLFIT).

| Compound | IC50 [1] [nM] | IC50 [2] [nM] |
| --- | --- | --- |
| CCOC(=O)c1c(C)[nH]c2c(=O)n(C)cc(C#CC(C)(O)CC)c12 (stereo unspecified) [US10202378, Example 65] | 135 | 826 |
| CC(=O)N1CCC(COC(=O)c2c(C)[nH]c3c(=O)n(C)cc(C#CC(C)(C)O)c23)CC1 [US10202378, Example 144] | 20.1 | 267 |
| CCOC(=O)c1c(C)[nH]c2c(=O)n(C)cc(C#CC3(O)CCN(C(C)=O)CC3)c12 [US10202378, Example 11] | 80 | 1490 |
| CCOC(=O)c1c(C)[nH]c2c(=O)n(C)cc(C#CC(C)(O)CO)c12 (stereo unspecified) [US10202378, Example 66] | 100 | 798 |
| CC(=O)NCCCOC(=O)c1c(C)[nH]c2c(=O)n(C)cc(C#CC(C)(O)C3CC3)c12 (stereo unspecified) [US10202378, Example 140] | 37.5 | 350 |
| CCC(C)(C)OC(=O)c1c(C)[nH]c2c(=O)n(C)cc(C#CC(C)(O)C3CC3)c12 (stereo unspecified) [US10202378, Example 138] | 47.9 | 251 |
| CN(C)C(=O)c1c[nH]c2c(=O)n(C)cc(C#CC(C)(C)O)c12 [US10202378, Example 171] | 1730 | 4420 |
| CCOC(=O)c1c(C)[nH]c2c(=O)n(CC3CC3)cc(C#CC(C)(C)O)c12 [US10202378, Example 52] | 155 | 8660 |
| CCOC(=O)c1c(C)[nH]c2c(=O)n(C)cc(C#CC(C)(O)C3CC3)c12 (stereo unspecified) [US10202378, Example 77] | 49 | 243 |
| CCOC(=O)c1c(C)[nH]c2c(=O)n(C)cc(C#CC(O)(c3ccc(N(C)C)cc3)C(F)(F)F)c12 (stereo unspecified) [US10202378, Example 3] | 86.3 | 209 |
| CCOC(=O)c1c(C)[nH]c2c(=O)n(C)cc(C#CC(C)(O)C3CCOC3)c12 (stereo unspecified) [US10202378, Example 7] | 181 | 607 |
| Cc1[nH]c2c(=O)n(C)cc(C#CC(C)(O)C3CC3)c2c1-c1nnc(CO)o1 (stereo unspecified) [US10202378, Example 206] | 73.5 | 425 |
| Cc1[nH]c2c(=O)n(C)cc(C#CC(C)(C)O)c2c1C(=O)OCC1CC1 [US10202378, Example 155] | 52.8 | 274 |
| CCOC(=O)c1c(C)[nH]c2c(=O)n(C)cc(C#CC3(O)CCN(C(=O)CC)CC3)c12 [US10202378, Example 10] | 58.9 | 2230 |
| CCOC(=O)c1c(C)[nH]c2c(=O)n(C)cc(C#CC(C)(O)c3cccc(C)c3)c12 (stereo unspecified) [US10202378, Example 29] | 50.9 | 303 |
| CCOC(=O)c1c(C)[nH]c2c(=O)n(C)cc(C#CC(C)(O)CNc3ccccc3)c12 (stereo unspecified) [US10202378, Example 14] | 14800 | > 20000 |
| Cc1[nH]c2c(=O)n(C)cc(C#CC(C)(C)O)c2c1C(=O)OC(C)C(C)C (stereo unspecified) [US10202378, Example 152] | 53.6 | 235 |
| CCOC(=O)c1c(C)[nH]c2c(=O)n(C)cc(C#CC(C)(C)N)c12 [US10202378, Example 67] | 4110 | 5210 |
| Cc1cc([C@](C)(O)C#Cc2cn(C)c(=O)c3[nH]c(C)c(C(=O)OC(C)C(C)C)c23)no1 (stereo partly specified) [US10202378, Example 142] | 52.8 | 160 |
| CCC(C)C(C)OC(=O)c1c(C)[nH]c2c(=O)n(C)cc(C#CC(C)(C)O)c12 (stereo unspecified) [US10202378, Example 145] | 53.3 | 272 |
| Cc1[nH]c2c(=O)n(C)cc(C#CC(C)(O)c3ccccc3)c2c1C(=O)OC(C)C (stereo unspecified) [US10202378, Example 161] | 51.1 | 274 |
| CCOC(=O)c1c(C)[nH]c2c(=O)n(C)cc(C#CC(C)(O)c3nccs3)c12 (stereo unspecified) [US10202378, Example 68] | 122 | 521 |
| CCOC(=O)c1c(C)[nH]c2c(=O)n(C)cc(C#CC(C)(O)C3(C)CC3)c12 (stereo unspecified) [US10202378, Example 4] | 72.7 | 352 |
